Experimental data taken from patent US9493438B2, “4,4-difluoro-piperidine-compounds” (ROTTAPHARM BIOTECH S.R.L., priority 2012, dated 2016).

Columns and labels:
[1] = biological target: T1, human OX1 receptors (Homo sapiens, UniProt O43613); assay: antagonistic activity against human OX1 receptor, [Ca2+]i fluorimetry in transfected CHO cells; format: cell-based; conditions: CHO cells transfected with human recombinant OX1; activated with orexin-A 3 nM; pKb = co-logarithm of apparent dissociation constant (modified Cheng Prusoff)
T1 construct: expressed in transfected cells; host or cells: CHO cells
T1 sequence (O43613 1-425): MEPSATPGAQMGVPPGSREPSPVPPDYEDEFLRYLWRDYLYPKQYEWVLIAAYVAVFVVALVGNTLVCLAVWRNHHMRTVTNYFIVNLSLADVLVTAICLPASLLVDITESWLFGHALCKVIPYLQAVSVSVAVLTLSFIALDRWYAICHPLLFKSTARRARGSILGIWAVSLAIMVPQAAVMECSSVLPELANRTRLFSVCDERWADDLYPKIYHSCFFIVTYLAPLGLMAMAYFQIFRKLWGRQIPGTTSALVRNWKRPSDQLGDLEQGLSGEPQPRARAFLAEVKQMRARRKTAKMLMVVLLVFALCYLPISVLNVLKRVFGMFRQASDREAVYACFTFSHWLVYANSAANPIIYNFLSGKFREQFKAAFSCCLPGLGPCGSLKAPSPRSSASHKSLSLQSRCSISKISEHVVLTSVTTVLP
Experimental: (§1) Thus the plate was loaded with the calcium dye (Fluo-4NW/probenecid in HBSS, Hepes 20 mM, pH 7.4; Invitrogen) at 37° C. for 60 min. Afterward the temperature was equilibrated at 22° C. for 15 min and the [Ca2+]i measured directly on the plate by using a fluorescent plate reader (CeliLux Perkin Elmer).
(§2) Invention compounds were dissolved in DMSO, diluted in HBSS (DMSO, 0.3% final) and added to the wells. After 5 min CHO cells were activated with orexin-A, 3 nM while HEK-293 cells were activated with orexin-B, 10 nM. […] The antagonistic activity has been expressed as pKb (co-logarithm of the apparent dissociation constant calculated by using the modified Cheng Prusoff equation). The results are expressed as percent of control specific […] response ((measured specific response/control specific agonist response)×100) obtained in the presence of the test compounds.
(§3) The IC50 values (concentration causing a half-maximal inhibition of the control specific agonist response) were determinated by non-linear regression analysis of the concentration curves generated with mean replicate values using hill equation curve fitting. The IC50 values are obtained by the arithmetical mean of at least two experiments.

[2] = biological target: T2, human OX2 receptors (Homo sapiens, UniProt O43614); assay: antagonistic activity against human OX2 receptor, [Ca2+]i fluorimetry in transfected HEK-293 cells; format: cell-based; conditions: read-out: PKb OX2 (converted)
T2 construct: expressed in transfected cells; host or cells: HEK-293 cells
T2 sequence (O43614 1-444): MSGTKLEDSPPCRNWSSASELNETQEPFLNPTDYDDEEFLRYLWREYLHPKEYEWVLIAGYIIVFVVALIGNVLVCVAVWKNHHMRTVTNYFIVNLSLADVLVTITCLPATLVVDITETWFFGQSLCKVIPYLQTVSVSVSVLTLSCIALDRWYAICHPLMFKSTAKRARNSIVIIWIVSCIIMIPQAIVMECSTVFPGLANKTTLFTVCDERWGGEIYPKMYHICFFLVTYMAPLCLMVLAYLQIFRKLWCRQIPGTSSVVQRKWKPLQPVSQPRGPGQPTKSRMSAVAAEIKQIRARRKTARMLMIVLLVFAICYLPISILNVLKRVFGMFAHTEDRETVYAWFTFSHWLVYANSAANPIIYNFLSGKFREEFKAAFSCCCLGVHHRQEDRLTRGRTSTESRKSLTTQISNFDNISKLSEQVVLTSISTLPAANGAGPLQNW
Experimental: as §1, §2, §3

Row | SMILES | Kb [1] | Kb [2]
1 | Cc1ccc(-c2ccccc2)c(C(=O)N2CCC(F)(F)CC2CNc2ncc(C(F)(F)F)cc2F)n1 (racemic) [Compound 44, (RS)(4,4-difluoro-2-(((3-fluoro-5-(trifluoromethyl)pyridin-2-yl)amino)methyl)piperidin-1-yl)(6-methyl-3-phenylpyridin-2-yl)methanone] | 3.98 nM | 200 nM
2 | Cc1ccc(-c2ncccn2)c(C(=O)N2CCC(F)(F)CC2CNc2ncc(C(F)(F)F)cc2F)n1 (racemic) [Compound 31, (RS)(4,4-difluoro-2-(((3-fluoro-5-(trifluoromethyl)pyridin-2-yl)amino)methyl)piperidin-1-yl)(6-methyl-3-(pyrimidin-2-yl)pyridin-2-yl)methanone] | 3.98 nM | 10000 nM
3 | Cc1ccc(-c2ccccc2)c(C(=O)N2CCC(F)(F)CC2CNc2ccc(C(F)(F)F)cn2)n1 (racemic) [Compound 36, (RS)(4,4-difluoro-2-(((5-(trifluoromethyl)pyridin-2-yl)amino)methyl)piperidin-1-yl)(6-methyl-3-phenylpyridin-2-yl)methanone] | 3.16 nM | 10000 nM
